Laboratory results taken from patent publication US20090176817A1, “Method of Treatment of Diarrhea-Predominant Irritable Bowel Syndrome in a Subject” (priority 2005, published 2009).
Like-named read-outs stand apart in the source and are kept apart here. Marks after values point to notes of the source that are not given here.

Experiments:
[1] = Study S.241.1.109: interaction with ketoconazole 200 mg BID; type: in vivo, human; details: for AUC(0-τ) / Cmax / Tmax: steady state; for AUC(0-τ): AUC(0-8); for AUC(0-τ) / Cmax: arith. mean; for Tmax: median; for AUC(0-τ) Ratio (Treatment B/A) / Cmax Ratio (Treatment B/A): cilansetron + ketoconazole / cilansetron alone, ANOVA of log-transformed data
Description: In an open-label, randomized, parallel-group study in three groups of 12 healthy, male and female subjects (aged 19 to 45 years), subjects received a 2 mg single dose of cilansetron on Day 1, 2 mg TID on Days 2-13, and a 2 mg single dose on Day 14. […] All morning doses of cilansetron and enzyme inhibitors were administered immediately after a standard breakfast. […] For each treatment group, log-transformed cilansetron AUC(0-τ) and Cmax values on Day 14 (cilansetron+enzyme inhibitor) were compared statistically versus values on Day 7 (cilansetron alone).

[2] = both, human, in vivo
Description: (§3) Two randomized, double-blind, placebo controlled, balanced incomplete block design, crossover studies evaluated the single- and multiple-dose pharmacokinetics of oral cilansetron over a 8 mg to 32 mg dose range. In both studies, subjects were randomized to receive two of three treatments during 2 treatment periods. In one study (12 male and 13 female subjects, aged 23 to 36 years), subjects received 8 mg cilansetron, 16 mg cilansetron, or placebo, while in another study (12 males and 13 females, aged 23 to 41 years), subjects received 16 mg cilansetron, 32 mg cilansetron, or placebo. During each treatment period, subjects received a single dose of their assigned treatment on the first day, followed by a 3-day washout, after which they received the same treatment TID for 5 days.
(§4) There was a 5-6 day washout period between treatment periods. Doses on the mornings of pharmacokinetic days were administered under fasted conditions. Serial blood sampling and urine collection was performed up to 12 hours following morning dosing on the first day (single dose) and on the last multiple dosing day of each treatment period, and cilansetron pharmacokinetic parameters were evaluated.
(§5) In two randomized, double-blind, placebo controlled, balanced incomplete block design, crossover studies evaluating the single- and multiple-dose pharmacokinetics of oral cilansetron over a 8 mg to 32 mg dose range, subjects were randomized to receive two of three treatments during 2 treatment periods. In Study S.241.1.101; (12 male and 13 female subjects, aged 23 to 36 years), subjects received 8 mg cilansetron, 16 mg cilansetron, or placebo, while in Study S.24 1.1.102; (12 males and 13 females, aged 23 to 41 years), subjects received 16 mg cilansetron, 32 mg cilansetron, or placebo. During each treatment period, subjects received a single dose of their assigned treatment on the first day, followed by a 3-day washout, after which they received the same treatment TID for 5 days. There was a 5-6 day washout period between treatment periods. Doses on the mornings of pharmacokinetic days were administered under fasted conditions. Serial blood sampling and urine collection was performed up to 12 hours following morning dosing on the first day (single dose) and on the last multiple dosing day of each treatment period, and cilansetron pharmacokinetic parameters were evaluated.

[3] = both, human, in vivo; remark: listed apart in the source
[4] = human, in vivo
Description: Subjects were randomized to receive a cilansetron 8 mg capsule after an overnight fast and a cilansetron 8 mg capsule after a high-fat breakfast during the two treatment periods, with a 3-day washout between periods. Serial blood sampling and urine collection was performed up to 24 hours following each dose, and cilansetron pharmacokinetic parameters were evaluated.

clinical [5] = type: in vivo, human; details: both sexes, human, in vivo
Description: (§1) Various covariates were screened during development of the population pharmacokinetic model, including age, height, weight, body surface area, body mass index, race, gender, smoking status, serum creatinine levels, serum creatinine clearance, total bilirubin levels, cilansetron dose, and concomitant medication usage. Some efficacy and safety parameters were also evaluated in this population analysis using correlation analyses. Efficacy parameters evaluated included overall relief of IBS symptoms (Responder or Non-Responder), intensity of abdominal pain, number of stools and stool consistency, symptoms of abdominal and rectal discomfort (straining, urgency, feeling of incomplete defecation, passage of mucus, bloating, and feeling of abdominal distension), and upper GI symptoms at Visit 5 (vomiting, heartburn, early satiety, postprandial fullness, sensation of prolonged digestion, and nausea). Safety parameters evaluated included the top ten most frequently observed adverse events (constipation, flatulence, nausea, abdominal pain, headache, dyspepsia, infection, gastrointestinal disorders, anorexia, and diarrhea).
(§2) A statistically significant negative correlation was found between exposure (AUC and Cmax at steady state) and some efficacy parameters including change in stool consistency (adjusted for baseline) and the experience of straining. Patients with higher exposure to cilansetron and/or its 4-hydroxy metabolites were more likely to have lower stool consistency scores (a tendency for harder stools) than patients with lower exposure. […] In addition, patients with higher exposure to cilansetron were more likely to experience straining.

[6] = system: non-constipated IBS patients; experiment: clinical; type: in vivo, human; details: linear regression
Description: as §1, §2

[7] = both, human, in vivo, 32 mg
Description: as §3, §4, §5

clinical [8] = type: in vitro ADME; details: male, human, plasma; 8 mg oral/IV, 30, 45, 120 minutes; read-out: Fraction bound
Description: Plasma protein binding was also measured in blood samples collected at 30, 45, and 120 minutes after dosing in a single-dose, crossover study in which cilansetron 8 mg was administered orally (solution and capsule) and intravenously to 18 male subjects. In samples where total and/or free concentrations were measurable, fraction bound was about 96-98%.

healthy subjects = experiment: Study K.241.5012: gastric emptying time, healthy young subjects; type: in vivo, human; details: mean (SD), not significant vs placebo
From the text: The effect of cilansetron on gastric emptying time and colonic transit time has been studied in 1 clinical study in healthy young subjects and 2 studies in elderly subjects. For measurement of gastric emptying time, breath samples for the determination of the ^12C/^13C ratio were taken on the last day of each treatment period immediately after ingestion of a ^13C labeled meal. The patients' breath was collected in separate 15-minute intervals, for four hours in total. ^13CO2 measurements were performed with an isotope ratio mass spectrometer. The half-life (TK) and lag-time (Tlag), which describe the duration of gastric emptying, were used as the primary parameters to evaluate gastric emptying time. In all 3 studies, colonic transit time was measured by administration of radio-opaque markers for the last six days of each treatment period, followed by a single abdominal X-ray image at 24 hours after ingestion of the last set of markers. The numbers of markers within the colon were used to calculate segmental (right colon, left colon, and rectosigmoid) and total colonic transit time.
Study K.241.5013 was a randomized, double-blind, placebo-controlled, 3-way crossover study in 12 healthy male subjects (ITT population), aged 20-27 years. Subjects received cilansetron 4 mg, cilansetron 8 mg, or placebo orally TID for 14 days during each of the treatment periods, with a 14-day washout between periods. The primary efficacy parameter was the total mean colonic transit time during each treatment and the secondary parameters were the segmental colonic transit times and the gastric emptying measurements. A one-sided Dunnett t-test procedure was used to compare efficacy parameters between the cilansetron and placebo treatments.

[9] = Cilansetron 2 mg TID + Ketoconazole 200 mg twice daily
[10] = Cilansetron 2 mg TID alone (ketoconazole group)

Cc1nccn1CC1CCc2c(c3cccc4c3n2CC[C@H]4O)C1=O (stereo partly drawn) [(4R)-hydroxy cilansetron]
AUC(0-τ) [1, 9]: 20.8 ng·h/mL | Cmax [1, 9]: 5.11 ng/mL | Tmax [1, 9]: 1.50 h | AUC(0-τ) [1, 10]: 12.2 ng·h/mL | Cmax [1, 10]: 2.48 ng/mL | Tmax [1, 10]: 2.00 h | AUC(0-τ) Ratio (Treatment B/A) [1]: 176% | Cmax Ratio (Treatment B/A) [1]: 209%

Cc1nccn1CC1CCc2c(c3cccc4c3n2CC[C@@H]4O)C1=O (stereo partly drawn) [(4S)-hydroxy cilansetron]
AUC(0-τ) [1, 9]: 13.5 ng·h/mL | Cmax [1, 9]: 2.29 ng/mL | Tmax [1, 9]: 2.00 h | AUC(0-τ) [1, 10]: 8.42 ng·h/mL | Cmax [1, 10]: 1.35 ng/mL | Tmax [1, 10]: 3.00 h | AUC(0-τ) Ratio (Treatment B/A) [1]: 163% | Cmax Ratio (Treatment B/A) [1]: 174%

Cc1nccn1C[C@H]1CCc2c(c3cccc4c3n2CCC4)C1=O [Cilansetron, (R)-(−)-4,5,6,8,9,10-hexahydro-10-[(2-methyl-1H-imidazol-1-yl)methyl]-11H-pyrido-[3,2,1-jk]-carbazol-11-one]
Dose excreted unchanged in urine [2]: less than 1% | Intrasubject % CV [2]: 23-51% | Mean AUC(0-τ) (multiple dose) to AUC(0-inf) (single dose) ratios [2]: 81-94% | AUC Ratio (90% CI) ([2]; 8 mg): 84 (46, 154) % | Cmax Ratio (90% CI) ([2]; 8 mg): 82 (42, 160) % | DN-AUC ([2]; 8 mg): 14.0 (49) ng · h/mL | AUC Ratio (90% CI) ([2]; 16 mg): 58 (32, 103) % | Cmax Ratio (90% CI) ([2]; 16 mg): 54 (29, 103) % | AUC Ratio (90% CI) ([2]; po, 8 mg): 81 (46, 145) % | Cmax Ratio (90% CI) ([2]; po, 8 mg): 77 (46, 128) % | AUC Ratio (90% CI) ([2]; po, 16 mg): 82 (47, 142) % | Cmax Ratio (90% CI) ([2]; po, 16 mg): 79 (49, 130) % | AUC(0-τ) ratio Mild/Healthy [3]: 71 (38, 132) % | AUC(0-τ) ratio Moderate/Healthy [3]: 49 (25, 95) % | AUC(0-τ) ratio Renal Combined/Healthy [3]: 76 (47, 124) % | AUC(0-τ) ratio Severe/Healthy [3]: 130 (66, 254) % | CL/F ratio Mild/Healthy [3]: 141 (76, 264) % | CL/F ratio Moderate/Healthy [3]: 206 (105, 403) % | CL/F ratio Renal Combined/Healthy [3]: 131 (81, 213) % | CL/F ratio Severe/Healthy [3]: 77 (39, 151) % | Cmax ratio Mild/Healthy [3]: 83 (50, 140) % | Cmax ratio Moderate/Healthy [3]: 55 (32, 96) % | Cmax ratio Renal Combined/Healthy [3]: 90 (60, 134) % | Cmax ratio Severe/Healthy [3]: 156 (89, 272) % | T½ ratio Mild/Healthy [3]: 85 (63, 114) % | T½ ratio Moderate/Healthy [3]: 65 (47, 89)* % | T½ ratio Renal Combined/Healthy [3]: 78 (62, 99) % | T½ ratio Severe/Healthy [3]: 87 (64, 120) % | Tmax ([3]; 2 mg): 1.13 h | CL/F ([4]; 8 mg): 2698 (77) mL/min | % Dose (urine) ([4]; male): 0.21 (91) % | AUC (0-last) ratio fed/fasted ([4]; male): 108% | AUC(0-inf) ratio fed/fasted ([4]; male): 104% | Cmax ratio fed/fasted ([4]; male): 79% | AUC(0-inf) ([4]; male, 8 mg): 77.6 (66) ng · h/mL | AUC(0-last) ([4]; male, 8 mg): 72.8 (72) ng · h/mL | CLr ([4]; male, 8 mg): 3.86 (90) mL/min | Cmax ([4]; male, 8 mg): 31.7 (58) ng/mL | Cmax decrease with high-fat meal ([4]; male, 8 mg): 21% | Tmax ([4]; male, 8 mg): 1.00 (0.50, 2.00) h | T½ ([4]; male, 8 mg): 1.43 (40) h | Vz/F ([4]; male, 8 mg): 309 (76) L | AUC (clinical [5]): 360 ng·h/mL | Cmax (clinical [5]): 65 ng/mL | Decrease in stool consistency score per 600 ng*h/mL AUC or 100 ng/mL Cmax [6]: 0.5 point | DN-AUC [7]: 14.1 (61) ng · h/mL | fraction unbound (clinical [8]): 0.02 to 0.04 | gastric emptying time Tlag (healthy subjects; 4 mg TID oral 14 days): 1.70 (0.22) hours | gastric emptying time T½ (healthy subjects; 4 mg TID oral 14 days): 2.46 (0.35) hours | gastric emptying time Tlag (healthy subjects; 8 mg TID oral 14 days): 1.63 (0.30) hours | gastric emptying time T½ (healthy subjects; 8 mg TID oral 14 days): 2.38 (0.42) hours
